# Source: PubChem BioAssay (NCI)
#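 GI50 = concentration required for 50% inhibition of growth. TGI denotes the concentration required for complete inhibition of growth.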
# Tests used:
# Assay in all cases: growth of human tumour cells (NCI), 384-well format
# [1] = test system: T-47D breast
# [2] = test system: UACC-257 melanoma
# [3] = test system: U251 glioblastoma
# [4] = test system: HCC-2998 colon
# [5] = test system: KM12 colon
# [6] = test system: RXF 393 renal
# [7] = test system: HL-60(TB) leukemia
# [8] = test system: SF-539 CNS
# [9] = test system: NCI-H460 NSCLC
# [10] = test system: DU-145 prostate
# [11] = test system: ACHN renal
# [12] = test system: MDA-MB-231 breast
# [13] = test system: MDA-MB-468 breast
# [14] = test system: NCI-H522 lung
# [15] = test system: UO-31 renal
# [16] = test system: HOP-92 NSCLC
# [17] = test system: EKVX NSCLC
# [18] = test system: M14 melanoma
# [19] = test system: SW-620 colon
# [20] = test system: HCT-116 colon
# [21] = test system: OVCAR-3 ovarian
# [22] = test system: 786-0 renal
# [23] = test system: SK-OV-3 ovarian
# [24] = test system: COLO 205 colon
# [25] = test system: HCT-15 colon
# [26] = test system: NCI/ADR-RES ovarian
# [27] = test system: RPMI-8226 leukemia
smiles,measurement,setting,value
COc1cc(Nc2ncc(F)c(Nc3ccc4c(n3)NC(=O)C(C)(C)O4)n2)cc(OC)c1OC,GI50,[1],52.6 µM
same,TGI,[1],> 100 µM
same,GI50,[2],> 100 µM
same,TGI,[2],> 100 µM
same,GI50,[3],38.9 µM
same,TGI,[3],> 100 µM
same,GI50,[4],14.7 µM
same,TGI,[4],> 100 µM
same,GI50,[5],0.346 µM
same,TGI,[5],> 100 µM
same,GI50,[6],0.516 µM
same,TGI,[6],30.9 µM
same,GI50,[7],3.37 µM
same,TGI,[7],8.28 µM
same,GI50,[8],1.24 µM
same,TGI,[8],17.8 µM
same,GI50,[9],11.3 µM
same,TGI,[9],> 100 µM
same,GI50,[10],14.6 µM
same,TGI,[10],> 100 µM
same,GI50,[11],1.6 µM
same,TGI,[11],> 100 µM
same,GI50,[12],2.58 µM
same,TGI,[12],97 µM
same,GI50,[13],5.78 µM
same,TGI,[13],> 100 µM
same,GI50,[14],0.7 µM
same,TGI,[14],13.1 µM
same,GI50,[15],55.1 µM
same,TGI,[15],> 100 µM
same,GI50,[16],15.4 µM
same,TGI,[16],> 100 µM
same,GI50,[17],0.808 µM
same,TGI,[17],> 100 µM
same,GI50,[18],24.7 µM
same,TGI,[18],> 100 µM
same,GI50,[19],> 100 µM
same,TGI,[19],> 100 µM
same,GI50,[20],> 100 µM
same,TGI,[20],> 100 µM
same,GI50,[21],6.28 µM
same,TGI,[21],> 100 µM
same,GI50,[22],16.3 µM
same,TGI,[22],> 100 µM
same,GI50,[23],0.371 µM
same,TGI,[23],> 100 µM
same,GI50,[24],4.34 µM
same,TGI,[24],29.8 µM
same,GI50,[25],4.36 µM
same,TGI,[25],> 100 µM
same,GI50,[26],13.4 µM
same,TGI,[26],> 100 µM
same,GI50,[27],> 100 µM
same,TGI,[27],> 100 µM
